Test results: BigSolDB 2.1

With `NC(N)=C([N+](=O)[O-])[N+](=O)[O-]` the solubility (mole fraction) (in DMF, 293.15 K) was 0.0918, the solubility (mole fraction) (in DMF, 303.15 K) was 0.102 and the solubility (mole fraction) (in DMF, 313.15 K) was 0.11. For the same compound, the solubility (mole fraction) (in DMF, 323.15 K) was 0.119, the solubility (mole fraction) (in DMF, 333.15 K) was 0.129 and the solubility (mole fraction) (in DMF, 343.15 K) was 0.137. It also gave a solubility (mole fraction) (in DMF, 353.15 K) of 0.148, a solubility (mole fraction) (in DMF, 363.15 K) of 0.162 and a solubility (mole fraction) (in DMSO, 293.15 K) of 0.183. The solubility (mole fraction) (in DMSO, 303.15 K) was 0.191, the solubility (mole fraction) (in DMSO, 313.15 K) was 0.199 and the solubility (mole fraction) (in DMSO, 323.15 K) was 0.207. For the same compound, the solubility (mole fraction) (in DMSO, 333.15 K) was 0.217, the solubility (mole fraction) (in DMSO, 343.15 K) was 0.229 and the solubility (mole fraction) (in DMSO, 353.15 K) was 0.242. The solubility (mole fraction) (in DMSO, 363.15 K) was 0.254, the solubility (mole fraction) (in NMP, 293.15 K) was 0.168 and the solubility (mole fraction) (in NMP, 303.15 K) was 0.178. The solubility (mole fraction) (in NMP, 313.15 K) was 0.184, the solubility (mole fraction) (in NMP, 323.15 K) was 0.194 and the solubility (mole fraction) (in NMP, 333.15 K) was 0.203. The solubility (mole fraction) (in NMP, 343.15 K) was 0.214, the solubility (mole fraction) (in NMP, 353.15 K) was 0.227 and the solubility (mole fraction) (in NMP, 363.15 K) was 0.24.
